Marks after values point to notes of the source that are not given here.
experiment: Measurement of LogP values by HPLC on reversed phase columns (EEC directive 79/831 Annex V.A8); type: physicochemical; settings: not given
Description: The abbreviations and numerations of the substituent positions used in the context of the present invention and in the following Tables are explained in detail in the section Examples hereinafter. Also, the LogP values indicated in the following Tables are explained in detail in the section Examples hereinafter. In case LogP values for different diastereoisomers of a specific compound are […], said LogP values are […] by a “+”. […] Measurement of LogP values was performed according to EEC directive 79/831 Annex V.A8 by HPLC (High Performance Liquid Chromatography) on reversed phase columns with the following methods: […] Lambda-max-values were determined using UV-spectra from 200 nm to 400 nm and the peak values of the chromatographic signals

Row | LogP [a] | LogP | Compound
1 | 4.36^[a] | – | COc1ccc(CNc2nsc(C(=O)OC(C)C)c2Cl)cc1 [E-VII-004]
2 | – | 1.69[a] | Cc1c(N)nsc1C(=O)NCc1ccc(F)c(F)c1 [I-149]
3 | – | 2.68[a] | C[C@H](NC(=O)c1snc(N)c1C1CC1)C1CCCCC1 [I-271]
4 | 5.03^[a] | – | COc1ccc(CN(Cc2ccccc2)c2nscc2Cl)cc1 [Z-A-007]
5 | – | 4.08[a] | CC1CCCC(C)(C)C1CN(C(=O)c1snc(N)c1Cl)C1CC1 (centres unmarked) [I-081]
6 | – | 2.39[a] | COc1ccc(CNc2nsc(C(=O)NCc3cncs3)c2Cl)cc1 [I-1323]
7 | – | 5.24[a] | COc1ccc(CNc2nsc(C(=O)NC3CCC4CCCCC4C3)c2Cl)cc1 (centres unmarked) [I-1216]
8 | – | 1.49[a] | COc1ccc(CNc2nsc(C(=O)NCc3cnccc3OC)c2Cl)cc1 [I-1330]
9 | – | 3.56[a] | O=C(NCc1ccccc1F)c1snc(NCc2ccccc2)c1Cl [I-069]
10 | – | 2.73[a] | CC(c1ccccc1)N(C(=O)c1snc(N)c1Cl)C1CC1 (centres unmarked) [I-886]
11 | 2.60^[a] | – | O=C(NCC1CCCCC1)c1snc(N=S2CCCCC2)c1Cl [II-088]
12 | – | 2.66[a] | Nc1nsc(C(=O)NCC2CCCCC2)c1C(F)F [I-417]
13 | – | 2.88[a] | Cc1ccc(NC(=O)c2snc(N)c2Br)cc1Cl [I-965]
14 | – | 2.13[a] | Nc1nsc(C(=O)NCCc2ccc(F)cc2)c1Cl [I-966]
15 | – | 4.84[a] | C[C@H](NC(=S)c1snc(NC2CC2)c1Cl)C1CCCCC1 [I-428]
16 | – | 1.49[a] | Nc1cc(C(=O)NCc2cc(F)ccc2F)sn1 [I-030]
17 | – | 2.30[a] | Nc1nsc(C(=O)NCC2=CCCCC2)c1Cl [I-089]
18 | 1.94^[a] | – | CCS(C)=Nc1nsc(C(=O)NCC2CCCCC2)c1Cl (centres unmarked) [II-091]
19 | 5.34^[a] | – | O=C(NC1CCCC2CCCCC21)c1snc(Cl)c1Cl (centres unmarked) [E-II-012]
20 | 3.00^[a] | – | COc1ccc(CNc2nscc2Cl)cc1 [Z-A-005]
21 | – | 4.40[a] | O=C(NCc1cccc(F)c1)c1cc(N(Cc2ccccc2)Cc2ccccc2)ns1 [I-310]
22 | 1.82^[a] | – | CS(C)=Nc1nsc(C(=O)NCC2CCCCC2)c1Cl [II-032]

Row | LogP [a] | LogP | Compound
23 | – | 2.11[a] | C[C@H]1CCCC[C@H]1NC(=O)c1snc(N)c1F (relative stereo) [I-1356]
24 | – | 2.41[a] | Nc1nsc(C(=O)N(Cc2ccccc2)C2CC2)c1Cl [I-183]
25 | – | 4.46[a] | COc1ccc(CNc2nsc(C(=O)NCc3cc(C(F)(F)F)cc(C(F)(F)F)c3)c2Cl)cc1 [I-1313]
26 | – | 3.04[a] | CON(CC1CCCCC1)C(=O)c1snc(N)c1Cl [I-543]
27 | – | 4.05[a] | COc1ccc(CNc2nsc(C(=O)NC(C#N)c3cccc(Cl)c3Cl)c2Cl)cc1 (centres unmarked) [I-1335]
28 | – | 4.18[a] | COc1ccc(CNc2nsc(C(=O)N[C@@H]3CCCC[C@@H]3C)c2Cl)cc1 (relative stereo) [I-1550]
29 | – | 1.88[a] | Nc1nsc(C(=O)NCc2ccccc2Br)c1Cl [I-1553]
30 | 5.00^[a] | – | CC(C)OC(=O)c1snc(N(C(=O)OC(C)(C)C)C(=O)OC(C)(C)C)c1Cl [E-VII-011]
31 | – | 1.86[a] | Cc1c(N)nsc1C(=O)NCc1ccc(Cl)cc1 [I-051]
32 | – | 3.17[a] | COc1ccc(CNc2nsc(C(=O)NOc3ccccc3)c2Cl)cc1 [I-1031]
33 | 3.52^[a] | – | O=C(NCc1ccccc1Cl)c1snc(Cl)c1Cl [E-II-003]
34 | – | 5.36[a] | O=C(c1cc(N(Cc2ccccc2)Cc2ccccc2)ns1)N(Cc1ccccc1)C1CC1 [I-910]
35 | – | 2.30[b] | CCC(NC(=O)c1cc(N)ns1)C1CCCCC1 (centres unmarked) [I-1407]
36 | 5.73^[a] | – | CCOC(=O)c1snc(N(Cc2ccccc2)Cc2ccccc2)c1Cl [E-VII-013]
37 | – | 3.46[a] | COc1ccc(CNc2nsc(C(=O)NCc3cccc(OC)c3F)c2Cl)cc1 [I-236]
38 | 5.27^[a] | – | O=C(NC1CCCC2CCCCC21)c1snc(Cl)c1Cl (centres unmarked) [E-II-025]
39 | – | 0.82[a] | Cc1c(N)nsc1C(=O)NCC1CCCC1O (single isomer, unassigned) [I-707]
40 | – | 3.90[a] | COc1ccc(CNc2nsc(C(=O)NC(C)C3(Cl)CC3)c2Cl)cc1 (centres unmarked) [I-1250]
41 | – | 1.90[c] | Nc1nsc(C(=O)NCC2CCCCC2)c1C#CCO [I-618]
42 | – | 4.69[a] | COc1ccc(CNc2nsc(C(=O)NC(c3ccccc3C)C(C)C)c2Cl)cc1 (centres unmarked) [I-1192]
43 | – | 1.55[a] | CCOc1c(N)nsc1C(=O)NCC1(O)CCCCC1 [I-726]

Row | Compound | LogP [a] | LogP
44 | CS(C)=Nc1nsc(C(=O)NCC2CCOC2)c1F (centres unmarked) [II-071] | 0.26^[a] | –
45 | O=C(NC1CCCC2CCCCC21)c1snc(N=CN2CCCC2)c1Cl (centres unmarked) [II-036] | 3.52^[a] | –

same assay, conditions: HPLC LC-UV, acidic range, 0.1% formic acid in water and acetonitrile as eluent

Row | Compound | chromatographic logP
46 | CCOC(=O)c1snc(N(Cc2ccccc2)Cc2ccccc2)c1Br [E-VII-008, ethyl 4-bromo-3-(dibenzylamino)-1,2-thiazole-5-carboxylate] | 5.8
47 | CCOC(=O)c1cc(N(Cc2ccccc2)Cc2ccccc2)ns1 [E-VII-012, ethyl 3-(dibenzylamino)-1,2-thiazole-5-carboxylate] | 5.13
